Values of other authors as cited in patent US20150272124A1, “ANTIMICROBIAL COMPOSITIONS CONTAINING CATIONIC ACTIVE INGREDIENTS” (Ecolab USA Inc., priority 2014, published 2015).

Details: calcium-chelating agent complex, logarithmic form

In the case of `O=C(O)CC(NC(CC(=O)O)C(=O)O)C(=O)O` (stereo not shown) [IDS, Iminodisuccinic Acid], the “Log Stability constant, Ca2+” value is given as 5.2.
